# Experimental data from patent US6552009B2, “Compositions and methods of treating abnormal cell proliferation” (Gentrix LLC, priority 1998, dated 2003).
# System: moderate to severe papular-pustular acne
# Type: in vivo, human
# Settings: for skin irritation: human, in vivo
# Method: This example compares therapeutically applied retinyl palmitate, retinoic acid, calcitriol, and combinations thereof in a cream at different concentrations with the effectiveness of the cream without any of the above compounds present in treating acne. The base cream used to prepare the experimental formulations is the commercially available […] cream. The different compounds at different concentrations were added to the cream and mixed very well. Sixty six volunteers were recruited and were randomly assigned to each of the groups. the subjects were selected on the basis of their having moderate to severe papular-pustular acne. Each group consisted of 3 males and 3 females. No other acne treatment was permitted during the period. Preparations were applied to the face in the morning and evening after washing the face with ordinary soap. Observations were made at time 0, 1, 4, and 8 weeks to assure that treatment was carried out according to direction. Judgments of “worse”, “no change”, “mild”, and “good” were made after 8 weeks of treatment.
SMILES,skin irritation,improvement in treating acne versus lower concentrations (concentrations at about 1.5% and more)
"C=C1/C(=C\C=C2/CCC[C@]3(C)[C@@H]([C@H](C)CCCC(C)(C)O)CC[C@@H]23)C[C@@H](O)C[C@@H]1O [calcitriol, reference compound]",caused skin irritation,
CC1=C(/C=C/C(C)=C/C=C/C(C)=C/CO)C(C)(C)CCC1=O [4-oxo-retinol],did not,
CCCCCCCCCCCCCCCC(=O)OC/C=C(C)/C=C/C=C(C)/C=C/C1=C(C)CCCC1(C)C [retinyl palmitate],did not,remarkable improvement over lower concentrations
"CC1=C(/C=C/C(C)=C/C=C/C(C)=C/C(=O)O)C(C)(C)CCC1 [retinoic acid, reference compound]",caused skin irritation,
